Read-outs that look alike come from different tables or passages of the source.
Columns and labels:
Format in all cases: cell-based
human TLR7 = target: T1, human TLR7 (Homo sapiens, UniProt Q9NYK1); test: TLR7 inhibition reporter assay (HEK-Blue cells, secreted embryonic alkaline phosphatase reporter); details: HEK-Blue cells overexpressing human TLR7, stimulated with gardiquimod 7.5 μM; read-out: TLR 7 IC50
T1 construct: host or cells: HEK-Blue cells (HEK293-derived reporter line)
T1 sequence (Q9NYK1 27-1049): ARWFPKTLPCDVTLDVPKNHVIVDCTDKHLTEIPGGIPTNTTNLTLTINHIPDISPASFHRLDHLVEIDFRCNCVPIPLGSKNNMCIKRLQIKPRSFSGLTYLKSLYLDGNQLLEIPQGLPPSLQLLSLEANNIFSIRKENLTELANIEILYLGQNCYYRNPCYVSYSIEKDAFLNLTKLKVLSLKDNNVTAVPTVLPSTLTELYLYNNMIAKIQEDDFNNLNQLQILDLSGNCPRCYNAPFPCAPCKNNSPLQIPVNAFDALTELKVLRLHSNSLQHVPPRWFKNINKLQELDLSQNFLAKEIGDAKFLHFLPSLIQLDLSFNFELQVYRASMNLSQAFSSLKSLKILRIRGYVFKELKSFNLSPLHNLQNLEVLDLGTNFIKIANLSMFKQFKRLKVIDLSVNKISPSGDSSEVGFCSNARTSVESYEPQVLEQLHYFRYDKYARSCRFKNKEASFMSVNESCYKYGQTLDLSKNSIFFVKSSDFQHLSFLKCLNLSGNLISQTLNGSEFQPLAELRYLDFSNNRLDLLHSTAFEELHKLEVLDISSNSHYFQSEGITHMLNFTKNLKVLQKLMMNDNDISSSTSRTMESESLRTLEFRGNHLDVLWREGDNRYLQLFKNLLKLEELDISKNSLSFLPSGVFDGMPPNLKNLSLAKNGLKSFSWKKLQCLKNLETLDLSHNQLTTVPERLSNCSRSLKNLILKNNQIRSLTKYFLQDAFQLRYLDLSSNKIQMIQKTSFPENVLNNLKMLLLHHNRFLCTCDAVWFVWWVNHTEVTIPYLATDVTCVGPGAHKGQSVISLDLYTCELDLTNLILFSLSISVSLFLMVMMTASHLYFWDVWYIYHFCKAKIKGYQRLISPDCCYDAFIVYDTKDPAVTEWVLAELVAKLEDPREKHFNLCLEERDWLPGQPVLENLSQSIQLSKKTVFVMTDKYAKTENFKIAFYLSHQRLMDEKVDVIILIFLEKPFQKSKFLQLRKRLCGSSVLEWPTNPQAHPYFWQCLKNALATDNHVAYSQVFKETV
In short: (§1)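 Steps: seed receptor-specific HEK-Blue cells; add compound, 0.05 nM–50 μM; wait 30 min at room temperature; add final gardiquimod 7.5 μM, R848 15.9 μM or ODN2006 5 nM for TLR7, TLR8 or TLR9; incubate 22 h at 37 °C; detect NF-κB/AP-1-driven SEAP.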

human TLR8 = target: T2, human TLR8 (Homo sapiens, UniProt Q9NR97); test: TLR8 inhibition reporter assay (HEK-Blue cells, secreted embryonic alkaline phosphatase reporter); details: HEK-Blue cells overexpressing human TLR8, stimulated with R848 15.9 μM; read-out: TLR 8 IC50
T2 construct: host or cells: HEK-Blue cells (HEK293-derived reporter line)
T2 sequence (Q9NR97 27-1041): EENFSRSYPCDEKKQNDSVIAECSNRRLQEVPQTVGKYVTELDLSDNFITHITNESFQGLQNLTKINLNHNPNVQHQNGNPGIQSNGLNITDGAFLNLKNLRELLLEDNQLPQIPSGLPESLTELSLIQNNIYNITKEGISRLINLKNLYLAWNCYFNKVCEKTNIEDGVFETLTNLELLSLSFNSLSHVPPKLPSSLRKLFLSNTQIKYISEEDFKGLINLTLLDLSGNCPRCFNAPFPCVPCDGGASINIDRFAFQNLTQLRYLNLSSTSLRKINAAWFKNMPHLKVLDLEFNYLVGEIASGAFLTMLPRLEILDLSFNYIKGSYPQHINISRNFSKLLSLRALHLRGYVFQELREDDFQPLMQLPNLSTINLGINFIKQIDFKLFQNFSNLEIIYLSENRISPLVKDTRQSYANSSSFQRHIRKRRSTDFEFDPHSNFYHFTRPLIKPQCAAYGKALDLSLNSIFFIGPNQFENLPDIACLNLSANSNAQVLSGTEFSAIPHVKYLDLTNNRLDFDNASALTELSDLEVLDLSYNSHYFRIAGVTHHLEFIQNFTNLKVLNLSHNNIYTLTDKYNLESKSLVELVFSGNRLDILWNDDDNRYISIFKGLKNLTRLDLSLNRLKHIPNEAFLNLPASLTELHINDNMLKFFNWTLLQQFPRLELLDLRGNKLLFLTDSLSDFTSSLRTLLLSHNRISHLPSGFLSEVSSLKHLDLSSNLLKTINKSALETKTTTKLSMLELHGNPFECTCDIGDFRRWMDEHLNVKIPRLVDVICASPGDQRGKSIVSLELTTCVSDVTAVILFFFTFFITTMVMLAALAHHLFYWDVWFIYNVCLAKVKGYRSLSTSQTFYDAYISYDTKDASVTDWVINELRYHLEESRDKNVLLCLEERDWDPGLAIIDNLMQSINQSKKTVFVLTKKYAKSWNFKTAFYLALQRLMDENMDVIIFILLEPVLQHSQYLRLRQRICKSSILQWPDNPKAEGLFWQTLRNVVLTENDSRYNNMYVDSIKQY
In short: as §1

human TLR9 = target: T3, human TLR9 (Homo sapiens, UniProt Q9NR96); test: TLR9 inhibition reporter assay (HEK-Blue cells, secreted embryonic alkaline phosphatase reporter)
T3 construct: host or cells: HEK-Blue cells (HEK293-derived reporter line)
T3 sequence (Q9NR96 26-1032): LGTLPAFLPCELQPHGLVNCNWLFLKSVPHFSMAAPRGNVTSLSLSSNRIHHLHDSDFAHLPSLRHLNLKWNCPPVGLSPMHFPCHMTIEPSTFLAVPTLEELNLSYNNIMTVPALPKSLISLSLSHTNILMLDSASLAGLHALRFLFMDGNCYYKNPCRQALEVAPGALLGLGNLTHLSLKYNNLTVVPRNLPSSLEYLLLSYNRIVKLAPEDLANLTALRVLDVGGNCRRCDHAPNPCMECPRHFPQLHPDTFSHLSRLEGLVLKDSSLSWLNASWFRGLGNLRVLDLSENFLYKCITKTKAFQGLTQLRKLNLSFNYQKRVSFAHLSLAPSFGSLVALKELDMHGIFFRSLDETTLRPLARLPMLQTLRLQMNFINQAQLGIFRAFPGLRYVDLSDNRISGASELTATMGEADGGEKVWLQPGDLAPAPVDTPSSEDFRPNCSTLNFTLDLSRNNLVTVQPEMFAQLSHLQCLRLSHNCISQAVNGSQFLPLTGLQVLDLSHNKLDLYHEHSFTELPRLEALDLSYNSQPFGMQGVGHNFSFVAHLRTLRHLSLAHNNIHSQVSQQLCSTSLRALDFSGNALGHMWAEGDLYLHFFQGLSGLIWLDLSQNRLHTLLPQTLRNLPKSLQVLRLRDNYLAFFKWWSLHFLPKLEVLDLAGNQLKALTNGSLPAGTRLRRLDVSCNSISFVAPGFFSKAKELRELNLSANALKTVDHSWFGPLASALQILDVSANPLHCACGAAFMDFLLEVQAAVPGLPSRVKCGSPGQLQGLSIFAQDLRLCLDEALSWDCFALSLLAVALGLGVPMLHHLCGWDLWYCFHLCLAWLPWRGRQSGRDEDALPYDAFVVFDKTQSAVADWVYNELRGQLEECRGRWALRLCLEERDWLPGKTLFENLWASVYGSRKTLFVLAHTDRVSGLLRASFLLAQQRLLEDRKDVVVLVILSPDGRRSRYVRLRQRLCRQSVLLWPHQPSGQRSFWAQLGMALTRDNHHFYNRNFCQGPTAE
In short: as §1

[1] = HEK-Blue cells overexpressing human TLR9, stimulated with ODN2006 5 nM, read-out: TLR 9 IC50
[2] = HEK-Blue human TLR9 reporter cells
[3] = HEK-Blue cells overexpressing human TLR9, stimulated with ODN2006 5 nM, 22 hour incubation, reporter readout

| SMILES | IC50 (human TLR7) [nM] | IC50 (human TLR8) [nM] | IC50 (human TLR9) [nM] | IC50 (human TLR9; [1]) [nM] | IC50 (human TLR9; [2]) [nM] | IC50 (human TLR9; [3]) [nM] |
| --- | --- | --- | --- | --- | --- | --- |
| CC(C)CN1C2CCC1CC(N1CCC(c3cc(F)c4c(c3)nc(-c3ccc(S(C)(=O)=O)cc3)n4C)CC1)C2 (stereo not shown) [Example 209, 7-fluoro-5-(1-(8-isobutyl-8-azabicyclo[3.2.1]octan-3-yl)piperidin-4-yl)-1-methyl-2-(4-(methylsulfonyl)phenyl)-1H-benzo[d]imidazole] | 16700 | 16700 | 81 | 81 |  |  |
| CCn1c(-c2ccc(OC)c(OC)c2)nc2cc(C3CCN(C4CCN(C(C)C)CC4)CC3)ccc21 (single isomer, unassigned) [Example 9, 2-(3,4-dimethoxyphenyl)-1-ethyl-5-(1′-isopropyl-[1,4′-bipiperidin]-4-yl)-1H-benzo[d]imidazole] | 2700 | 1300 |  | 249 |  | 250 |
| CC(C)N1C2CCC1CC(N1CCC(c3cc(F)c4nc(-c5ccc(S(C)(=O)=O)cc5)n(C5CC5)c4c3)CC1)C2 (single isomer, unassigned) [Example 117, 1-cyclopropyl-4-fluoro-6-(1-(8-isopropyl-8-azabicyclo[3.2.1]octan-3-yl)piperidin-4-yl)-2-(4-(methylsulfonyl)phenyl)-1H-benzo[d]imidazole] | 2200 | > 50000 |  |  |  | 71 |
| Cc1cc(-c2nc3c(C)cc(C4CCN(C5CCN(CC(C)C)CC5)CC4)cc3[nH]2)cc(C)n1 [Example 60, 2-(2,6-dimethylpyridin-4-yl)-6-(1′-isobutyl-[1,4′-bipiperidin]-4-yl)-4-methyl-1H-benzo[d]imidazole] | 1500 | > 50000 |  | 45 |  | 45 |

Further lines, results first:

| IC50 (human TLR7) [nM] | IC50 (human TLR8) [nM] | IC50 (human TLR9) [nM] | IC50 (human TLR9; [1]) [nM] | IC50 (human TLR9; [2]) [nM] | IC50 (human TLR9; [3]) [nM] | SMILES |
| --- | --- | --- | --- | --- | --- | --- |
| 9000 | > 50000 | 58 | 58 |  |  | CC(C)CN1CCC(N2CCC(c3cc(F)c4nc(-c5ccc(S(C)(=O)=O)cc5)n(C)c4c3)CC2)CC1 [Example 278, 4-fluoro-6-(1′-isobutyl-[1,4′-bipiperidin]-4-yl)-1-methyl-2-(4-(methylsulfonyl)phenyl)-1H-benzo[d]imidazole] |
| > 50000 | > 50000 |  | 172 | 170 |  | Cc1cc(C2CCN(C3CC4CCC(C3)N4C(C)C)CC2)cc2[nH]c(-c3ccc(S(C)(=O)=O)cc3)nc12 (stereo not shown) [Example 332, 6-(1-(8-isopropyl-8-azabicyclo[3.2.1]octan-3-yl)piperidin-4-yl)-4-methyl-2-(4-(methylsulfonyl)phenyl)-1H-benzo[d]imidazole] |
| 6100 | > 50000 |  | 192 | 190 |  | Cn1c(-c2ccc(S(C)(=O)=O)cc2)nc2ccc(C3CCN(C4CCCN(C5COC5)CC4)CC3)c(F)c21 (stereo not shown) [Example 314, 7-fluoro-1-methyl-2-(4-(methylsulfonyl)phenyl)-6-(1-(1-(oxetan-3-yl)azepan-4-yl)piperidin-4-yl)-1H-benzo[d]imidazole] |
| 800 | 1400 |  | 206 |  | 210 | COc1ccc(-c2nc3ccc(-c4ccc(CN5CCC(N(C)C)CC5)cc4)cc3n2C)cc1 [Example 376, 1-(4-(2-(4-methoxyphenyl)-1-methyl-1H-benzo[d]imidazol-6-yl)benzyl)-N,N-dimethylpiperidin-4-amine] |
| 6200 | > 50000 |  | 147 | 150 |  | Cn1c(-c2ccc(S(C)(=O)=O)cc2)nc2ccc(C3CCN(C4CCCN(C5COC5)CC4)CC3)c(F)c21 (stereo not shown) [Example 315, 7-fluoro-1-methyl-2-(4-(methylsulfonyl)phenyl)-6-(1-(1-(oxetan-3-yl)azepan-4-yl)piperidin-4-yl)-1H-benzo[d]imidazole] |
| 43200 | > 50000 | 95 | 95 |  |  | CC(C)CN1C2CCC1CC(N1CCC(c3cc4c(cc3F)nc(-c3ccc(S(C)(=O)=O)cc3)n4C)CC1)C2 (single isomer, unassigned) [Example 229, 5-fluoro-6-(1-(8-isobutyl-8-azabicyclo[3.2.1]octan-3-yl)piperidin-4-yl)-1-methyl-2-(4-(methylsulfonyl)phenyl)-1H-benzo[d]imidazole] |
| 12500 | > 50000 |  | 23 | 23 |  | CC(C)CN1CCCC(N2CCC(c3cc(F)c4nc(-c5ccc(S(C)(=O)=O)cc5)n(C)c4c3)CC2)CC1 (stereo not shown) [Example 297, 4-fluoro-6-(1-(1-isobutylazepan-4-yl)piperidin-4-yl)-1-methyl-2-(4-(methylsulfonyl)phenyl)-1H-benzo[d]imidazole] |
